pIC50: −log10 of the molar value. Entries after “also recorded” stand apart in the source; their conditions may differ. Where two headings read alike, the source gives them in different places.
Columns and labels:
IGF-1R [1] = biological target: T1, IGF-1R (Homo sapiens, UniProt P08069); conditions: cited from earlier work
IGF-1R [2] = biological target: T1, IGF-1R; conditions: cited from earlier work; remark: listed apart in the source
[3] = oxidation; cited from earlier work
[4] = system: primary mouse lung fibroblasts; assay: migration assay (FluoroBlok transwell); assay type: cell-based, C57BL6 mice
Description: Mouse lung fibroblasts were plated FluoroBlok transwell filters overnight, then IGF-1 (100 ng/ml), serum free media (negative control), 10% serum (positive control) was added to lower chamber. Some cells were preincubated with the blocking antibody to IGF-1R (A12, 40 μg/ml) before the addition of IGF-1. Cells were allowed to migrate through membrane for 4 hours @ 37° C. Migrated cells were counted with Fluorescent microscope. Each experiments was done in triplicate and repeated at least three times. Average cell count ±SD are presented.
For migration assays, primary mouse lung fibroblasts (50,000 cells/well) were plated in serum-free medium overnight on Fluoroblok transwell filters (8 μm pores, HTS FluoroBlok™ 24-Multiwell Insert System, BD Bioscience, Bedford, Mass.) pre-coated with fibronectin (50 μg/ml). Fluoroblok microporous membranes are specifically designed to detect by fluorescence only cells below the surface membrane. IGF-1 (100 ng/ml), 10% FBS (positive control) or serum-free media (negative control) was added to lower chamber. In some experiments, cells were preincubated with the blocking antibody to IGF-1R (A12, 40 μg/ml), for 1 hour. After 4 hours of migration, filters were fixed with formaldehyde and stained with DAPI (4′6-Diamidine-2′-phenylindole dihydrochloride, Roche, Indianapolis, Ind.). Migrated cells were counted in three predesignated fields for each filter. All experiments were done in triplicate and repeated at least three times.

human IGF-1R mRNA = conditions: cited from earlier work
IGF-1R [5] = biological target: T1, IGF-1R; conditions: cited from earlier work; remark: listed apart in the source
IR [6] = conditions: in vivo; cited from earlier work
[7] = system: primary normal human lung fibroblasts; assay: apoptosis assay (Cell Death Detection ELISA-plus), lung fibroblasts; assay type: cell-based; conditions: serum starvation, increasing concentrations
Description: (§1) A: Normal human lung fibroblast or distal lung epithelial cells were serum-starved overnight and then incubated with indicated concentration of IGF-1R antibody or IGFBP-3 overnight. B: A549 cells were serum-starved and incubated with IGF-1R antibody (136 μg/ml) with or without the indicated concentration of Fas ligand. Apoptosis was measured by Cell Death ELISA-plus ELISA (Roche Applied Science) per the manufacturer's directions. All experiments were done in triplicate and repeated at least twice. Apoptosis index is defined as the ratio of experimental condition OD405 nm: control (media alone) OD405 nm.
(§2) Primary normal human lung fibroblasts (Clonetics, Cambrex Bioscience, Rockland, Me.), primary distal lung human epithelial cells (Clonetics) or A549 (American Type Culture Collection, Manassas, Va.) were seeded in a 96-well tissue culture plate (2×10^4 cells/well) overnight and serum-starved for 24 hours. […] After 48 hours, apoptosis was measured. To prevent detached cells from being aspirated, plates were centrifuged at 200×g for 10 minutes, and apoptosis was measured using the Cell Death Detection ELISA-plus System (Roche Applied Science, Penzberg, Germany), which detects cytosolic histone-complexed DNA fragments. […]

[8] = system: primary distal lung human epithelial cells; assay: apoptosis assay (Cell Death Detection ELISA-plus), lung epithelial cells; assay type: cell-based; conditions: serum starvation, increasing concentrations
Description: as §1, §2

tumors = conditions: nude mice; cited from earlier work
IGF-1R [9] = biological target: T1, IGF-1R; conditions: cited from earlier work; remark: listed apart in the source
IR [10] = biological target: IR (Homo sapiens, UniProt P06213); conditions: even at high concentrations; cited from earlier work
β-tubulin = conditions: interaction with β-tubulin, mitotic arrest; cited from earlier work
[11] = rats; cited from earlier work
IGF-1R-positive tumors = conditions: mice; cited from earlier work
PDGFR = conditions: intact cells; cited from earlier work
[12] = system: primary mouse lung fibroblasts; assay: proliferation assay (MTT); assay type: cell-based, C57BL6 mice
Description: Mouse lung fibroblasts from saline-treated mice (A) or bleomycin-treated mice (B) were plated in triplicate and serum-starved overnight followed by addition of IGF-1 (100 ng/ml), serum-free media (negative control), 10% FBS (positive control), and then incubated for indicated time. Cell proliferation was measured by MTT assay. Data are shown as mean OD570 nm±SD and are average of at least 4 independent experiments.
For proliferation assays, primary mouse lung fibroblasts were plated at 10,000 cells/100 μl in 96-well plates. After initial adhesion, medium was changed to serum free overnight and then IGF-1 (100 ng/ml) was added. As a positive control, cells were grown in 10% FBS; as a negative control, cell were grown in serum-free media. Cell proliferation was assayed at 48, 72 or 96 hours by colorimetric methyl thiazolyl tetrazolium (MTT) assay per manufacturer's direction (Qiang et al., Blood 103:301-308 (2004)). Optical density of plates was read on a Spectra Max 250 (Molecular Device, Sunnyvale, Calif.) at 570 nm. All experiments were done in triplicate and repeated three times.

mouse lung fibroblasts = assay: Western blot of signaling in IGF-stimulated lung fibroblasts; assay type: cell-based; conditions: IGF-1 100 ng/ml
Description: Tyrosine phosphorylation of receptor tyrosine kinase substrates was evaluated. Mouse lung fibroblasts were serum-starved overnight and then stimulated with IGF-1 (100 ng/ml) for indicated times. Cells were lysed, and proteins separated by SDS-PAGE. Each membrane was blotted with indicated phospho-antibody then stripped and reblotted with antibody to total protein. Substrates include IGF-1R, IRS-1 and IRS-2. The tyrosine phosphorylated forms of the substrates are indicated by pIGF-1R, pIRS-1 and pIRS-2, respectively.
Tyrosine phosphorylation of receptor tyrosine kinase substrates was evaluated. Substrates include AKT, ERK. The tyrosine phosphorylated forms of the substrates are indicated by pAKT, pERK, respectively.
For Western Blot analyses, cells were grown to 70% confluence, placed in serum free medium overnight and then IGF-1 (100 ng/ml) was added for 5, 10, 15, 30 and 60 minutes. At indicated time points, cells were washed in ice-cold PBS and lysed in buffer containing 100 mM Tri-HCl (pH 7.4), 150 mM NaCl, 1 mM CaCl2, 0.1% SDS, 1% Triton-X, 0.1% NP-40, 1 mM […] (sodium vanadate), 1 mM NaF (sodium Fluoride) and protease inhibitor cocktail tablet (Roche). Protein concentrations were determined by the BCA assay (Pierce). Equal amounts of protein were separated by sodium dodecyl sulfate-polyacrylamide gel electrophoresis (SDS-PAGE), and electrophoretically transferred to PVDF membrane. Membranes were blocked with 5% nonfat dry milk/0.05% Tween-20/PBS for 2 hours, incubated with primary antibody for 2 hours at room temperature, washed with 0.05% Tween-20/PBS, incubated with horseradish peroxidase-conjugated secondary antibody (1:5000) for 2 h, washed with 0.05% Tween-20/PBS and then developed with enhanced chemiluminescence (ECL) technique (Amersham, England).

T1 sequence (P08069 31-1367, species assumed): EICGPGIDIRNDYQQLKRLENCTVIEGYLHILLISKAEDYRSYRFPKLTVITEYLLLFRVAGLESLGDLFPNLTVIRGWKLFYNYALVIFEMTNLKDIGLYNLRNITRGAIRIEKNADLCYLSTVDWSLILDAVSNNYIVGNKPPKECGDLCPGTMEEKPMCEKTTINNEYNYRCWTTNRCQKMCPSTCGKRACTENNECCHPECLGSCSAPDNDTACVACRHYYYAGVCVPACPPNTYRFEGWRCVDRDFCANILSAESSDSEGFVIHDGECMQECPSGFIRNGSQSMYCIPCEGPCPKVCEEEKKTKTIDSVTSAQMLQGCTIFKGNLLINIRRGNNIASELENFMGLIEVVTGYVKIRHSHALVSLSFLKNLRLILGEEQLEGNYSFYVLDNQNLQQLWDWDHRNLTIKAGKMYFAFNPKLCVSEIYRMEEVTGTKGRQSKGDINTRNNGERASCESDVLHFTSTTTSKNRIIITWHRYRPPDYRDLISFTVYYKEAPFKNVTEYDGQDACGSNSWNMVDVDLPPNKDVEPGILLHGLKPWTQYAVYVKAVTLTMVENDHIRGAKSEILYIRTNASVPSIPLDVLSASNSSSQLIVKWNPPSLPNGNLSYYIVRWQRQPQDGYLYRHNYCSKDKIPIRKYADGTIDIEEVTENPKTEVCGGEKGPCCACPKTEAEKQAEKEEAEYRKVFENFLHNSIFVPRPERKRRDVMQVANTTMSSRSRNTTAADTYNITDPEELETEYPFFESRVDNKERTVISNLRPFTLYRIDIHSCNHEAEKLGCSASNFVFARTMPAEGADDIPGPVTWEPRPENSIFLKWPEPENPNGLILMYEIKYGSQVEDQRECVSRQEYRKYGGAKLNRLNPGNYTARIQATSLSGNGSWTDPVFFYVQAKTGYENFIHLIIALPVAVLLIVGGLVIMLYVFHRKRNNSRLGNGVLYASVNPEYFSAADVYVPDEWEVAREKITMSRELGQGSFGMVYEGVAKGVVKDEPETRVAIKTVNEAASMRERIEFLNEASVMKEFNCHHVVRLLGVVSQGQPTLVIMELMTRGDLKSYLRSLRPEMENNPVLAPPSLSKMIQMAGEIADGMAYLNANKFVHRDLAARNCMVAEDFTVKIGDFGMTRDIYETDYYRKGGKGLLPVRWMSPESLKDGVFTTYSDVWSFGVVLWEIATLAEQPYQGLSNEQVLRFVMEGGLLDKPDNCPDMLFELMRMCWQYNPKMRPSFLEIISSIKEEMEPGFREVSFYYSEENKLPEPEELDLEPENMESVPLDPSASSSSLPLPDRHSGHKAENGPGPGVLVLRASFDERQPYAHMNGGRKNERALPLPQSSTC
Chain of IR (Homo sapiens, UniProt P06213) (P06213 28-1382): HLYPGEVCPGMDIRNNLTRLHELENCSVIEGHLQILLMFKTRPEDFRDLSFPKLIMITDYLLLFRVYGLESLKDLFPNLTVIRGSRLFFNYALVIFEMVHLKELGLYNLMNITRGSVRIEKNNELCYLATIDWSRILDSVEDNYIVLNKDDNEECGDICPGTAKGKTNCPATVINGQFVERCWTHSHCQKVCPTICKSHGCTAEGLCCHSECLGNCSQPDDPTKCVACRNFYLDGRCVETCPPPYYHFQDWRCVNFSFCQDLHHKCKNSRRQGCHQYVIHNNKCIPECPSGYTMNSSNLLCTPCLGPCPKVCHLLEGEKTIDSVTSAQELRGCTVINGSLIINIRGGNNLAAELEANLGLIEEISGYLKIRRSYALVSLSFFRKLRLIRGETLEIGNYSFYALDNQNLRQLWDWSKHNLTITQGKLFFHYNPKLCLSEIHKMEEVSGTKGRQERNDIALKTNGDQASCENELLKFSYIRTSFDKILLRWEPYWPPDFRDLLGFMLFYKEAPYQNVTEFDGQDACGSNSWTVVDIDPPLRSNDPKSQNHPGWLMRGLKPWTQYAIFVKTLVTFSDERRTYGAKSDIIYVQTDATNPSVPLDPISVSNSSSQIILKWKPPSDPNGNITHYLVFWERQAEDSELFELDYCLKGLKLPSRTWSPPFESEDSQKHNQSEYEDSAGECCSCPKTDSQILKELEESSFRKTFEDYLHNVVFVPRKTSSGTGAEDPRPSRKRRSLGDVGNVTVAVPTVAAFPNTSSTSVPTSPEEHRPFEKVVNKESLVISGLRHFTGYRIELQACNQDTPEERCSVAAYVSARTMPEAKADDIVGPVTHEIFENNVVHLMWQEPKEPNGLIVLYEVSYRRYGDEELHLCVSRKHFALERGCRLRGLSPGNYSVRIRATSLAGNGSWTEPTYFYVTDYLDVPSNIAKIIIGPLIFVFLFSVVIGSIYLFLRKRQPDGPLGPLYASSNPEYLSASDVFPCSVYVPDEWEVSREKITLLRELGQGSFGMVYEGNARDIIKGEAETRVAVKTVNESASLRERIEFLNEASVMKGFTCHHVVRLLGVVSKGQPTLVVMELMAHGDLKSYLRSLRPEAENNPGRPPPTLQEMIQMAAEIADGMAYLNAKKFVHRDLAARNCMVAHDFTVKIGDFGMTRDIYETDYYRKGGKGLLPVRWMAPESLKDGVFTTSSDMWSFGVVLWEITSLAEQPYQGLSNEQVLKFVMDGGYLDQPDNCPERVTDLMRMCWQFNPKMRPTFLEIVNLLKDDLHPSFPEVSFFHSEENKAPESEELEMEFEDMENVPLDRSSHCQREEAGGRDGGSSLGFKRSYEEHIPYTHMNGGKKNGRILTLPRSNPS

Compound: N#C/C(=C\c1ccc(O)c(O)c1)C(=O)c1ccc(O)c(O)c1 [AG 538]
- pIC50 (IGF-1R [1]; cell free kinase assay, read-out: IC50 inhibition of IGF-1R): 7.21
- receptor autophosphorylation and activation of downstream targets PKB and Erk2 (IGF-1R [2]; cultured cells): inhibits receptor autophosphorylation
- stability of catechol moiety [3]: unstable due to its vulnerability to oxidation

Compound: COc1cccc(-c2cc(=O)c3ccccc3o2)c1N [PD98059, reference compound]
- effect on IGF-1-induced migration ([4]; IGF-1 100 ng/ml, A12 40 μg/ml preincubation): partially inhibited

Compound: siRNA 1: 5'-GGGACCCUCCUCCGGAGCCAG-3' (antisense; SEQ ID NO: 1) and 5'-GGCUCCGGAGGAGGGUCCCCG-3' (sense; SEQ ID NO: 2) (listed as RNA, chemistry not given here)
- targeting of human IGF-1R mRNA (human IGF-1R mRNA): effective to target human IGF-1R mRNA

Compound: CN1CCN([C@H]2C[C@@H](c3nc(-c4ccc5ccc(-c6ccccc6)nc5c4)c4c(N)nccn43)C2)CC1 [cis-3-[3-(4-methyl-piperazin-1-yl)-cyclobutyl]-1-(2-phenyl-quinolin-7-yl)-imidazo[1,5-a]pyrazin-8-ylamine]
- IGF-1R activity in vivo (IGF-1R [5]): inhibit IGF-1R activity in vivo
- rise in blood sugar (IR [6]): without causing any substantial rise in blood sugar

Compound: IGFBP-3: insulin-like growth factor-binding protein-3 (R&D Systems)
- apoptosis of primary human lung fibroblasts [7]: increased apoptosis was not observed
- apoptosis of primary lung epithelial cells [8]: increased apoptosis was not observed

Compound: siRNA 2: 5'-GGUCUUCUCACACAUCGGCUU-3' (antisense; SEQ ID NO: 3) and 5'-GCCGAUGUGUGAGAAGACCUU-3' (sense; SEQ ID NO: 4) (listed as RNA, chemistry not given here)
- targeting of human IGF-1R mRNA (human IGF-1R mRNA): effective to target human IGF-1R mRNA

Compound: COc1ccc(Cl)cc1NC(=O)Nc1cc(C)nc2ccccc12 [PQ401]
- growth rate of tumors (tumors): reduce the growth rate of tumors

Compound: COc1cc([C@@H]2c3cc4c(cc3[C@H](O)[C@H]3COC(=O)[C@H]23)OCO4)cc(OC)c1OC [PPT, podophyllotoxin]
- IC50 on IGF-1R activity (IGF-1R [9]): sub-micromolar
- effect on IR activity (IR [10]): did not affect IR activity
- cytotoxicity (β-tubulin): cytotoxic

Compound: COc1cc([C@@H]2c3cc4c(cc3[C@H](O)[C@H]3COC(=O)[C@@H]23)OCO4)cc(OC)c1OC [PPP, picropodophyllin]
- IC50 on IGF-1R activity (IGF-1R [9]): sub-micromolar
- effect on IR activity (IR [10]): did not affect IR activity
- LD50 [11]: > 500 mg/kg
- killing IGF-1R-positive tumors (IGF-1R-positive tumors): effective at killing IGF-1R-positive tumors

Compound: N#C/C(=C\c1ccc2oc(=O)[nH]c2c1)C(=O)c1ccc(O)c(O)c1 [AGL 2263]
- activity relative to parent compound AG 538 in cell free assays (IGF-1R [1]; cell free assays): somewhat less active
- activity relative to parent compound AG 538 in cell culture assays (IGF-1R [2]; cell culture assays): comparable to the parent compound
- pIC50 (IGF-1R [2]; intact cells, read-out: IC50 inhibiting the activation of PKB in intact cells): 5.22
- PKB activation by PDGFR (PDGFR): did not affect

Compound: IGF-1: insulin-like growth factor 1, purchased from R&D Systems
- increase in migration ([4]; IGF-1 100 ng/ml, FIG. 4): 1.8 fold
- migration of MLF in response to IGF-1 ([4]; transwell filter, 4 hours, FIG. 5): increased migration
- proliferation of normal mouse lung fibroblasts ([12]; IGF-1 50 or 100 ng/ml, serum-free, up to 96 h): did not increase proliferation; also recorded: increased proliferation was not observed
- proliferation of activated fibroblasts derived from bleomycin-treated mice ([12]; data not shown): can induce proliferation
- Akt phosphorylation (mouse lung fibroblasts): phosphorylated in response to IGF-1 stimulation by 15 minutes and persisted until 60 minutes
- ERK phosphorylation (mouse lung fibroblasts): did not undergo phosphorylation
- IRS-1 phosphorylation (mouse lung fibroblasts): did not change
- IRS-2 phosphorylation (mouse lung fibroblasts): increased phosphorylation by 10 minutes that persisted until 30 minutes
- time to IGF-1R phosphorylation (mouse lung fibroblasts): ≤ 10 min

— patent US8178091B2, “Compositions and methods for the treatment of respiratory disorders” (University of Washington, priority 2007, dated 2012)
